Data set [1] deals with Triticum aestivum. As to the kind of experiment: Phytotoxicity against Triticum aestivum (wheat) assessed as inhibition of seed germination at 10 uM to 1 mM after 5 days relative to control. It is filed as organism-based. To be noted: in vivo, 120 h.
For data set [2], the system named is Avena fatua. Briefly: Herbicidal activity against Avena fatua assessed as inhibition of root length after 5 days relative to control. To be noted: 120 h. The format is functional, organism-based.
In data set [3] the test system is Oryza sativa. As to the kind of experiment: Phytotoxicity against Oryza sativa (rice) assessed as inhibition of seed germination at 10 uM to 1 mM after 7 days relative to control. It is filed as organism-based. To be noted: in vivo, 168 h.
Data set [4] concerns Triticum aestivum. Briefly: Phytotoxicity against Triticum aestivum (wheat) assessed as inhibition of root elongation after 5 days relative to control. It is filed as organism-based. To be noted: 120 h.
The subject of data set [5] is Echinochloa crus-galli. As to the kind of experiment: Herbicidal activity against Echinochloa crus-galli (barnyard grass) assessed as inhibition of seed germination at 0.05 uM to 1 mM after 5 days relative to control. It is filed as functional, organism-based.
The test system of data set [6] is Avena fatua. As to the kind of experiment: Herbicidal activity against Avena fatua assessed as inhibition of shoot length at 0.05 uM to 1 mM after 5 days relative to control. It is filed as functional, organism-based.
Data set [7] deals with Avena fatua. As to the kind of experiment: Herbicidal activity against Avena fatua assessed as inhibition of seed germination at 0.05 uM to 1 mM after 5 days relative to control. It is filed as functional, organism-based.
Data set [8] concerns Echinochloa crus-galli. As to the kind of experiment: Herbicidal activity against Echinochloa crus-galli (barnyard grass) assessed as inhibition of shoot length at 0.05 uM to 1 mM after 5 days relative to control. It is filed as functional, organism-based.
Data set [9] has as its system Echinochloa crus-galli. As to the kind of experiment: Herbicidal activity against Echinochloa crus-galli (barnyard grass) assessed as inhibition of root length after 5 days relative to control. The format is functional, organism-based. The conditions noted are these: 120 h.
The nature of data set [10]: Selectivity idex, ratio of IC50 for root elongation in Triticum aestivum to IC50 for root elongation in Avena fatua.
In data set [11] the test system is Oryza sativa. As to the kind of experiment: Phytotoxicity against Oryza sativa (rice) assessed as inhibition of root elongation after 7 days relative to control. The format is organism-based. The conditions noted are these: 168 h.
Data set [12] in a line: Selectivity idex, ratio of IC50 for root elongation in Oryza sativa to IC50 for root elongation in Echinochloa crus-galli.

Active and inactive are the calls of the source. The calls are words filed in the database; no cut-off is given here.

Regarding `CCC(=O)ON1C(=O)COc2ccc(Cl)cc21`, the Activity entry in the data set with Triticum aestivum [1] and in the data set on Oryza sativa [3] was “Non-toxic” throughout. Moreover, the IC50 in the data set with Avena fatua [2] is 19.3 µM; in the data set with Triticum aestivum [4], 46.6 µM; with Echinochloa crus-galli [9] it was 14 µM; with Oryza sativa [11] it was 3 µM. Moreover, the inhibition entry in the data set with Echinochloa crus-galli [5], in the data set with Avena fatua [6], in the data set with Avena fatua [7] and with Echinochloa crus-galli [8] was “Active” throughout. Besides, the Ratio IC50 came to 2.42 in data set [10] and 0.2 in [12].
Consider `CCCC1Oc2ccc(F)cc2N(O)C1=O` (stereo not given), for which the Activity entry in the data set with Triticum aestivum [1] and in the data set on Oryza sativa [3] was “Non-toxic” throughout. The IC50 with Avena fatua [2] is 160 µM; with Triticum aestivum [4], 766 µM; with Echinochloa crus-galli [9], 183 µM; with Oryza sativa [11], 337 µM. The inhibition entry in the data set with Echinochloa crus-galli [5], with Avena fatua [6], with Avena fatua [7] and in the data set with Echinochloa crus-galli [8] was “Active” each time. Also, the Ratio IC50 was determined as 4.78 in [10] and 1.85 in data set [12].
`CCC1Oc2ccc(Cl)cc2N(O)C1=O` [6-Cl-2-Et-D-DIBOA]: the Activity result with Triticum aestivum [1] and in the data set with Oryza sativa [3] was “Non-toxic” in each case. Moreover, the IC50 came to 466 µM with Avena fatua [2], 130 µM in the data set on Triticum aestivum [4], 840 µM with Echinochloa crus-galli [9] and 56 µM with Oryza sativa [11]. The inhibition result with Echinochloa crus-galli [5], in the data set with Avena fatua [6], with Avena fatua [7] and with Echinochloa crus-galli [8] was “Active” each time. The Ratio IC50 in data set [10] was determined as 0.28; in [12], 0.07.
For the molecule `O=C1C(c2ccccc2)Oc2ccc(Cl)cc2N1O` [6-Cl-2-Ph-D-DIBOA], the Activity entry in the data set with Triticum aestivum [1] and in the data set on Oryza sativa [3] was “Non-toxic” each time. The 50% inhibitory concentration (IC50) was 197 µM in the data set on Avena fatua [2], 690 µM in the data set on Triticum aestivum [4], 94 µM with Echinochloa crus-galli [9] and 992 µM in the data set on Oryza sativa [11]. For the same molecule, the inhibition result with Echinochloa crus-galli [5], in the data set with Avena fatua [6], in the data set on Avena fatua [7] and with Echinochloa crus-galli [8] was “Active” in each case. In addition, the results for the Ratio IC50 in data set [10] and in data set [12] were 3.51 and 10.5, respectively.
For the molecule `CCCC1Oc2ccc(Cl)cc2N(O)C1=O` [6-Cl-2-Pr-D-DIBOA], the Activity result with Triticum aestivum [1] and in the data set on Oryza sativa [3] was “Non-toxic” each time. Moreover, the IC50 in the data set with Avena fatua [2] came out at 123 µM; in the data set with Triticum aestivum [4], 470 µM; in the data set on Echinochloa crus-galli [9], 131 µM; with Oryza sativa [11] it was 156 µM. Moreover, the inhibition result with Echinochloa crus-galli [5], in the data set with Avena fatua [6], in the data set on Avena fatua [7] and in the data set on Echinochloa crus-galli [8] was “Active” in each case. The Ratio IC50 worked out at 3.82 in [10] and 1.19 in data set [12].
As to `CCCCC(=O)ON1C(=O)COc2ccc(Cl)cc21` [6-Cl-4-Val-D-DIBOA], the Activity result in the data set on Triticum aestivum [1] and in the data set with Oryza sativa [3] was “Non-toxic” in each case. In addition, the 50% inhibitory concentration (IC50) in the data set on Avena fatua [2] was found to be 3.54 µM; with Triticum aestivum [4] it was 26.6 µM; with Echinochloa crus-galli [9] it was 14 µM; in the data set on Oryza sativa [11] it was 2 µM. Besides, the inhibition entry with Echinochloa crus-galli [5], in the data set with Avena fatua [6], in the data set with Avena fatua [7] and in the data set with Echinochloa crus-galli [8] was “Active” each time. Also, the Ratio IC50 is 7.52 in data set [10] and 0.16 in data set [12].
As to `CCC(=O)Nc1ccc(Cl)c(Cl)c1` [PROPANIL], the Activity result in the data set with Triticum aestivum [1] and in the data set on Oryza sativa [3] was “Non-toxic” each time. Besides, the Ratio IC50 in data set [12] was found to be 1.87.

One may read the IC50 as the concentration that inhibits the measured activity by half.

Source of the values: ChEMBL document CHEMBL3046390, “Multifunctionalised benzoxazinones in the systems Oryza sativa-Echinochloa crus-galli and Triticum aestivum-Avena fatua as natural-product-based herbicide leads” (Pest Manag Sci, 2010).
